Results reported in patent publication US10487115B2, “Proteinaceous compounds and uses therefor” (UNIVERSITY OF CANBERRA, priority 2016, dated 2019).
* marks the point of attachment. Myristoyl = CCCCCCCCCCCCCC(=O)*

Key:
PKC-α = biological target: T1, PKC-α (Homo sapiens, UniProt P17252); experiment: Localization of PKC-α in PMA-stimulated MCF7 cells (immunofluorescence, Fn/c); format: cell-based; details: 50 μM, p=not significant relative to control
T1 construct: endogenous in cells; host or cells: MCF7
Procedure: (§1) MCF7 cells were pre-seeded overnight on sterile coverslips in 12 well plates with 1 mL of completed Dulbecco's modified eagle medium (DMEM) before incubating with 50 μM of importinib4759 (synthesized in accordance with Example 1) and importinib4759_O1 (synthesized in accordance with Example 1) for 24 hr. Test peptides were not removed when MCF7 cells were stimulated with 0.65 ng/mL of phorbol 12-myristate 13-acetate (PMA) for 60 hr. Diethylpyrocarbonate (DEPC)-water was used for control (test peptides were dissolved in sterile DEPC-water). After wash with Dulbecco's phosphate buffered saline (DPBS) twice, samples on coverslips were fixed with 4% paraformaldehyde for 10 minutes and stained with PKC-θ (Cat. SC-212), PKC-θ-Phosphor-T538, PKC-β2, PKC-α, Importin α, or Importin 8 primary Antibody respectively and conjugated Alexa-488 secondary Antibody. Cell nucleus was stained with anti-fade 2-(4-amidinophenyl)-6-indolecarbamidine dihydrochloride (DAPI). When samples were dried overnight, Nikon fluorescence microscopy was used to take photos. ImageJ software was used for densimetric analysis. Fn/c was calculated using the formula: Fn/c=(nuclear density-background density)/(cytoplasmic density-background density).

MCF7 cells = experiment: CD44hiCD24lo cancer stem cell formation in MCF-IM model (FACS); format: cell-based, human; details: importinib4759 5004 and 100 μM, importinib4759_O1 2504 and 50 μM, 24 hr before PMA 60 hr, p=0.0079 relative to control
Procedure: (§2) 5×10^4 MCF7 cells were seeded with 1 mL of complete DMEM in 12 well plates overnight, then importinib4759 (5004 and 100 μM; synthesized in accordance with Example 1) or importinib4759_O1 (2504 and 50 μM; synthesized in accordance with Example 1) were used to treat cells for 24 hr before stimulation with PMA for 60 hr. Samples were harvested by trypsinization followed by washing with DPBS containing 2% heat inactivated foetal bovine serum (HI-FBS). FACS staining were performed using anti-human CD44-APC, anti-human CD24-PE, Hoechst, and anti-human EpCAM antibody cocktails. Data was collected from BD FACSLSR-II flow cytometer. Treestar FlowJo was used for data analysis.

MCF7 epithelial cells = experiment: Live cell population after treatment, MCF7 cells (FACS); format: cell-based, human; details: same concentration of inhibitor as in MDA-MB-231 cells
Procedure: as §2
as §2, with “5×10^4 MDA-MB-231” for “5×10^4 MCF7”, “for 48” for “for 24”, “before samples” for “before stimulation with PMA for 60 hr. Samples”, “2% HI-FBS.” for “2% heat inactivated foetal bovine serum (HI-FBS).”, “staining was” for “staining were”

MDA-MB-231 xenograft = experiment: Balb/c-nude MDA-MB-231 xenograft breast cancer model: tumor volume and cancer stem cell proportion; format: in vivo, balb/c-nude mice
Procedure: A Balb/c-nude MDA-MB-231 xenograft breast cancer model was utilized to determine the effect of the importinib peptides alone and in combination with the chemotherapeutic, docetaxel in comparison to a randomized peptide control.
Five week old balb/c-nude mice (n=5 per test compound) were injected with MDA-MB-231 human breast carcinoma cell suspensions (2×10^6 cells in 25 μL PBS mixed with 25 μL of BD Matrigel Matrix) subcutaneously into the right mammary gland. Test compounds in a saline vehicle [4 mg/kg docetaxel; 8 mg/kg, 40 mg/kg and 60 mg/kg importinib4759 or importinib4759_O1 (synthesized in accordance with Example 1); 4 mg/kg docetaxel with 8 mg/kg importinib4759 or importinib4759_O1; 4 mg/kg docetaxel with 40 mg/kg importinib4759 or importinib4759_O1; 4 mg/kg docetaxel with 60 mg/kg importinib4759 or importinib4759_O1; or randomized peptide control] were injected intraperitoneally. Tumor volume was assessed using calipers daily over a period of five weeks following treatment. Animals were sacrificed after the five week period. Tumor grafts were removed using resection and processed into single cell suspensions. The percentage of cancer stem cells was determined using FACS analysis. FACS staining was performed using anti-human CD44-APC, anti-human CD24-PE, Hoechst, and anti-human EpCAM antibody cocktails. Data was collected from BD FACSLSR-II flow cytometer. Treestar FlowJo was used for data analysis. Significance was determined using a one-way ANOVA or Mann-Whitney T-test.

NF-κB p65 = experiment: Nuclear expression of NF-κB p65 in PMA-stimulated MCF7 cells (immunofluorescence, Fn/c); format: cell-based, human; details: 50 μM 24 hr, PMA 60 hr, p=0.0033
Procedure: (§3) MCF7 cells were pre-seeded overnight on sterile coverslips in 12 well plates with 1 mL of completed DMEM before inhibiting with 50 μM of importinib4759_O1 (synthesized in accordance with Example 1) for 24 hr. Importinib4759_O1 was removed when MCF7 cells were stimulated with 0.65 ng/mL of PMA for 60 hr. DEPC-water was used as the control (importinib4759_O1 was dissolved in sterile DEPC-water). After washing with DPBS twice, samples on coverslips were fixed with 4% paraformaldehyde for 10 minutes and stained with p65, Rb, or p53 primary Antibody and conjugated Alexa-488 secondary Antibody. Cell nucleus was stained with anti-fade DAPI. When samples were dried overnight, Nikon fluorescence microscopy was used to take photos. ImageJ software was used for densimetric analysis. Fn/c was calculated using the formula: Fn/c=(nuclear density-background density)/(cytoplasmic density-background density).

Importin 8 = biological target: T2, Importin 8 (Homo sapiens, UniProt O15397); experiment: Localization of Importin 8 in PMA-stimulated MCF7 cells (immunofluorescence, Fn/c); format: cell-based; details: 50 μM, p=not significant relative to control
T2 construct: endogenous in cells; host or cells: MCF7
T2 sequence (O15397 whole entry): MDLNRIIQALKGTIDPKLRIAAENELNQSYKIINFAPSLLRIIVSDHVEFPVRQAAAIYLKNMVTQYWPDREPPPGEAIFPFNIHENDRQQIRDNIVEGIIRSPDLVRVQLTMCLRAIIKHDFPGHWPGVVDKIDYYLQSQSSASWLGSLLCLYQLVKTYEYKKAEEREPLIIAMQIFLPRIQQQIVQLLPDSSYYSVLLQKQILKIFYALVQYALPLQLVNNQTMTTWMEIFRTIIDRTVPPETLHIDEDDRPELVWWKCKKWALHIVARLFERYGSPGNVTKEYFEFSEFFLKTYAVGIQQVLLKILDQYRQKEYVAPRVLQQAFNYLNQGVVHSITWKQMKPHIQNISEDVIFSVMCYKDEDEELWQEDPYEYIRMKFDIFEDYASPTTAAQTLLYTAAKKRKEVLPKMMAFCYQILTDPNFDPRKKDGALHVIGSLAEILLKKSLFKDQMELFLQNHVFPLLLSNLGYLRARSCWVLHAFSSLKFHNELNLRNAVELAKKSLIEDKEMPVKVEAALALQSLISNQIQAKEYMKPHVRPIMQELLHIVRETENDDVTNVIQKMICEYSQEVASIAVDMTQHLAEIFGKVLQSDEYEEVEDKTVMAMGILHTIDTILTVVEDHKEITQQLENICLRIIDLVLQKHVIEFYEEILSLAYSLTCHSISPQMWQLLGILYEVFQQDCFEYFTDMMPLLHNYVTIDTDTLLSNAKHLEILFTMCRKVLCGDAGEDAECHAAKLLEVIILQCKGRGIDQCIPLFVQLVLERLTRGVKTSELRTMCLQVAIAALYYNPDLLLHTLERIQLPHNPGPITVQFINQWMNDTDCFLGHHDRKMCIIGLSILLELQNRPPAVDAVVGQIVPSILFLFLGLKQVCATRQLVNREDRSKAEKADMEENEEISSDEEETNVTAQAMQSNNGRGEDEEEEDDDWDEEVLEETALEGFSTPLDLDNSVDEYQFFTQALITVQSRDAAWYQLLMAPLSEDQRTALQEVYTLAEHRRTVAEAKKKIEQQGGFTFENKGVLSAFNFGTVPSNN
Procedure: as §1

PKC-β2 = biological target: T3, PKC-β2 (Homo sapiens, UniProt P05771); experiment: Localization of PKC-β2 in PMA-stimulated MCF7 cells (immunofluorescence, Fn/c); format: cell-based; details: 50 μM, p=not significant relative to control
T3 construct: endogenous in cells; host or cells: MCF7
T3 sequence (P05771 1-673 isoform P05771-2): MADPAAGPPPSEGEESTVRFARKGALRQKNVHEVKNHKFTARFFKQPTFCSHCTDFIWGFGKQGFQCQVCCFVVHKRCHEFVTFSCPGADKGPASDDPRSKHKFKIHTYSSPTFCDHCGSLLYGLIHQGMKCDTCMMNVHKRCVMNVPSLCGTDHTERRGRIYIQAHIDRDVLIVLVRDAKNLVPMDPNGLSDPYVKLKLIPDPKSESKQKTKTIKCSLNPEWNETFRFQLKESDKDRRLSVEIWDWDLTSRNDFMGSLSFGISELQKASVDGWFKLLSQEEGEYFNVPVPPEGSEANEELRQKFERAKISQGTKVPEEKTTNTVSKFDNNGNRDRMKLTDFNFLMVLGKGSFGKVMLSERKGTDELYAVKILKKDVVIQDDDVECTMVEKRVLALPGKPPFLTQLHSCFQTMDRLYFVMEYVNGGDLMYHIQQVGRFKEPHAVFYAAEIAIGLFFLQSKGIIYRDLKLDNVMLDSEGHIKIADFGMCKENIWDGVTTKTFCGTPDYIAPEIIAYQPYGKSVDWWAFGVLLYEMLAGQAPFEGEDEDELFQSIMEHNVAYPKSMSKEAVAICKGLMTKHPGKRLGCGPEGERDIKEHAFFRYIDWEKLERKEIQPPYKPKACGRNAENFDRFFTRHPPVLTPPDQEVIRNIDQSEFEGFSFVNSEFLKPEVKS
Procedure: as §1

PKC-θ = biological target: T4, PKC-θ (Homo sapiens, UniProt Q04759); experiment: Nuclear translocation of PKC-θ in PMA-stimulated MCF7 cells (immunofluorescence, Fn/c); format: cell-based
T4 construct: endogenous in cells; host or cells: MCF7
T4 sequence (Q04759 whole entry): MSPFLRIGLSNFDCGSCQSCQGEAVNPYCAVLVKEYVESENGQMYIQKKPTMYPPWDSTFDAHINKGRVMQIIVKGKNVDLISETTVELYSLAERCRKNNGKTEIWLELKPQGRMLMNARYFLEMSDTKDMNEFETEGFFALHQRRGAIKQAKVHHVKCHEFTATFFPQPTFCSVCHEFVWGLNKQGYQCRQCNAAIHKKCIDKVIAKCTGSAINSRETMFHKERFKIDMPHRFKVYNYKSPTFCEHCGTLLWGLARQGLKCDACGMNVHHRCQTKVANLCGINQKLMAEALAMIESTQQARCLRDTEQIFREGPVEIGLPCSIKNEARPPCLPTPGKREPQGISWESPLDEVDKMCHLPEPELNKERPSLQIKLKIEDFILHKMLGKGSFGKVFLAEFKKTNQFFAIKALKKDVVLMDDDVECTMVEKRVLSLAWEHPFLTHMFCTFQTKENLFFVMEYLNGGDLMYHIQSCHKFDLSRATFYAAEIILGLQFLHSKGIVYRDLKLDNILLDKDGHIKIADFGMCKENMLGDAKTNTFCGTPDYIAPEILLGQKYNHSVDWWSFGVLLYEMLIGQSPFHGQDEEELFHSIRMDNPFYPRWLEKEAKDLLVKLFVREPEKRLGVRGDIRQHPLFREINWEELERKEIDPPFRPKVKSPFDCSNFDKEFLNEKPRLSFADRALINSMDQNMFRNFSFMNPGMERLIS
Procedure: as §1

p53 = experiment: Nuclear expression of p53 in PMA-stimulated MCF7 cells (immunofluorescence, Fn/c); format: cell-based, human; details: 50 μM 24 hr, PMA 60 hr, p=0.0009
Procedure: as §3

Importin α = experiment: Localization of Importin α in PMA-stimulated MCF7 cells (immunofluorescence, Fn/c); format: cell-based, human; details: 50 μM, p=not significant relative to control
Procedure: as §1

Rb = experiment: Expression of tumor suppressor protein Rb in PMA-stimulated MCF7 cells (immunofluorescence, Fn/c); format: cell-based, human; details: 50 μM 24 hr, PMA 60 hr, p=0.0007
Procedure: as §3

MDA-MB-231 cells = experiment: Live cell population after treatment, MDA-MB-231 cells (FACS); format: cell-based, human; details: 48 hr treatment, p<0.0001 relative to control
Procedure: as §2, with “5×10^4 MDA-MB-231” for “5×10^4 MCF7”, “for 48” for “for 24”, “before samples” for “before stimulation with PMA for 60 hr. Samples”, “2% HI-FBS.” for “2% heat inactivated foetal bovine serum (HI-FBS).”, “staining was” for “staining were”

effect on distribution of PKC-α (PKC-α): had no effect | effect on distribution of Importin 8 (Importin 8): had no effect | effect on distribution of PKC-β2 (PKC-β2): had no effect | blocking of nuclear PKC-θ (nuclear translocation) (PKC-θ; 50 μM peptide 24 hr, then PMA 0.65 ng/mL 60 hr, N-myristoylated peptides, p<0.0001 relative to control): capable of blocking nuclear PKC-θ
Substance: RRKRIDWPPRRKPK-OH (Myristoyl-RRKRIDWPPRRKPK-OH; SMILES CCCCCCCCCCCCCC(=O)N[C@@H](CCCNC(=N)N)C(=O)N[C@@H](CCCNC(=N)N)C(=O)N[C@@H](CCCCN)C(=O)N[C@@H](CCCNC(=N)N)C(=O)N[C@H](C(=O)N[C@@H](CC(=O)O)C(=O)N[C@@H](Cc1c[nH]c2ccccc12)C(=O)N1CCC[C@H]1C(=O)N1CCC[C@H]1C(=O)N[C@@H](CCCNC(=N)N)C(=O)N[C@@H](CCCNC(=N)N)C(=O)N[C@@H](CCCCN)C(=O)N1CCC[C@H]1C(=O)N[C@@H](CCCCN)C(=O)O)[C@@H](C)CC) [Importinib4759_O1, tested N-myristoylated]
cancer stem cell (CD44hiCD24lo) formation (MCF7 cells): inhibited | effect on live cell population of MCF7 epithelial cells (MCF7 epithelial cells): minimal effect | cancer stem cell (CD44highCD24low) population in tumor grafts (MDA-MB-231 xenograft; FACS of resected tumor grafts after five weeks): significantly abrogated the cancer stem cell population | tumor volume in comparison to the control or docetaxel treatment alone (MDA-MB-231 xenograft; intraperitoneal, peptide 8, 40 and 60 mg/kg, docetaxel 4 mg/kg, five weeks): abrogated tumor volume | tumor volume over time (MDA-MB-231 xenograft; intraperitoneal, peptide 8, 40 and 60 mg/kg, docetaxel 4 mg/kg, five weeks, n=5): reduced tumor volume over time | nuclear expression of NF-κB p65 (NF-κB p65): significantly inhibited nuclear expression | capacity to prevent PKC-θ nuclear translocation compared to importinib4759 (PKC-θ; 50 μM, PMA stimulated): significantly higher capacity to prevent PKC-θ nuclear translocation compared to importinib4759 | nuclear expression of p53 (p53): significantly inhibited nuclear expression | effect on distribution of Importin α (Importin α): had no effect | expression of tumor suppressor protein Rb (Rb): enhanced expression | effect on live cell population of MDA-MB-231 cells (MDA-MB-231 cells): cleared virtually all MDA-MB-231 cells
